The target of assay [1] is T1, isolated kinase domain of the human FLT3 receptor (a.a. 571-993) (Homo sapiens, UniProt P36888).
T1 construct: human FLT3 receptor (a.a. 571-993)
T1 sequence (P36888 571-993): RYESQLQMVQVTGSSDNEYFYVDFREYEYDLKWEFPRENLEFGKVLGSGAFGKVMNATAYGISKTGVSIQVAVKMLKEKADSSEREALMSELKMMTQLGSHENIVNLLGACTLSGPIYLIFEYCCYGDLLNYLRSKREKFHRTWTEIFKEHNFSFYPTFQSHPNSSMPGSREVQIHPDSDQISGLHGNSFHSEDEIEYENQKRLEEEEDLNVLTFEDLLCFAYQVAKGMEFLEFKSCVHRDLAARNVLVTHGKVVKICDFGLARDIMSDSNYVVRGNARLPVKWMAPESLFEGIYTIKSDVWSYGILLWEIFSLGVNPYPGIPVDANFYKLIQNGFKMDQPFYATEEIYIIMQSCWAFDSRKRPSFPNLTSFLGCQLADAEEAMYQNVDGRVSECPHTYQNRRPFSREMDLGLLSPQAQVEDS
Kind of assay: FLT3 fluorescence polarization kinase assay. The following applies: 150 uM ATP; uncertainty ±10%. The class given is biochemical. Here is the method: The FLT3 FP assay utilizes the fluorescein-labeled phosphopeptide and the anti-phosphotyrosine antibody included in the Panvera Phospho-Tyrosine Kinase Kit (Green) supplied by Invitrogen. When FLT3 phosphorylates polyGlu4Tyr, the fluorescein-labeled phosphopeptide is displaced from the anti-phosphotyrosine antibody by the phosphorylated poly Glu4Tyr, thus decreasing the FP value. The FLT3 kinase reaction is incubated at room temperature for 30 minutes under the following conditions: 10 nM FLT3 571-993, 20 ug/mL poly Glu4Tyr, 150 uM ATP, 5 mM MgCl2, 1% compound in DMSO. The kinase reaction is stopped with the addition of EDTA. The fluorescein-labeled phosphopeptide and the anti-phosphotyrosine antibody are added and incubated for 30 minutes at room temperature.
All data points are an average of triplicate samples. Inhibition and IC50 data analysis was done with GraphPad Prism using a non-linear regression fit with a multiparamater, sigmoidal dose-response (variable slope) equation.
In general terms: Polarisation of emitted light reports the rotation of a fluorescent probe.

In the next assay the test system is MV4-11 cells. Nature of the assay: Inhibition of MV4-11 cell proliferation (CellTiterGlo, 72 h). Type of assay: cell-based. The following applies: Homo sapiens; 72 h growth inhibition; uncertainty ±20%. Here is the method:
MV4-11 cells cannot grow and survive without active FLT3ITD.
To measure proliferation inhibition by test compounds, the luciferase based CellTiterGlo reagent (Promega), which quantifies total cell number based on total cellular ATP concentration, was used. Cells are plated at 10,000 cells per well in 100 ul of in RPMI media containing penn/strep, 10% FBS and 1 ng/ml GM-CSF or 1 ng/ml IL-3 for MV4-11 and Baf3 cells respectively.
Compound dilutions or 0.1% DMSO (vehicle control) are added to cells and the cells are allowed to grow for 72 hours at standard cell growth conditions (37° C., 5% CO2). For activity measurements in MV4-11 cells grown in 50% plasma, cells were plated at 10,000 cells per well in a 1:1 mixture of growth media and human plasma (final volume of 100 μL). To measure total cell growth an equal volume of CellTiterGlo reagent was added to each well, according to the manufacturer's instructions, and luminescence was quantified. Total cell growth was quantified as the difference in luminescent counts (relative light units, RLU) of cell number at Day 0 compared to total cell number at Day 3 (72 hours of growth and/or compound treatment). One hundred percent inhibition of growth is defined as an RLU equivalent to the Day 0 reading. Zero percent inhibition was defined as the RLU signal for the DMSO vehicle control at Day 3 of growth. All data points are an average of triplicate samples. […] Inhibition and IC50 data analysis was done with GraphPad Prism using a non-linear regression fit with a multiparamater, sigmoidal dose-response (variable slope) equation.
MV4-11 cells express the FLT3 internal tandem duplication mutation, and thus are entirely dependent upon FLT3 activity for growth. […] In contrast, the Baf3 cell proliferation is driven by the cytokine IL-3 and thus are used as a non-specific toxicity control for test compounds.

Some results are limits rather than exact numbers.

`COc1cc2ncnc(C3CCN(C(=O)Nc4ccc(C(F)(F)F)cc4)CC3)c2cc1OC` [Example 46, 4-(6,7-Dimethoxy-quinazolin-4-yl)-piperidine-1-carboxylic acid (4-trifluoromethyl-phenyl)-amide]: the IC50 in assay [1] was determined as 990 nM; in the assay with MV4-11 cells it was 2000 nM.

Consider `O=C(Nc1ccc(N2CCCC2)cc1)N1CCC(c2ncnc3cc(N4CC[C@H](O)C4)ccc23)CC1` [Example 129, (S)-4-[7-(3-Hydroxy-pyrrolidin-1-yl)-quinazolin-4-yl]-piperidine-1-carboxylic acid (4-pyrrolidin-1-yl-phenyl)-amide], for which the values for the IC50 (in assay [1]; in the assay on MV4-11 cells) were 1 nM and 9 nM, respectively.

For the compound `COc1cc2ncnc(C3CCN(C(=O)Nc4ccc(N5CCCCCC5)cc4)CC3)c2cc1OC` [Example 70, 4-(6,7-Dimethoxy-quinazolin-4-yl)-piperidine-1-carboxylic acid (4-azepan-1-yl-phenyl)-amide], the concentration for half-maximal inhibition (IC50) in assay [1] was 27 nM; in the assay with MV4-11 cells it was 8 nM.

As to `CS(=O)(=O)N1CC[C@@H](Oc2ccc3c(C4CCN(C(=O)Nc5ccc(N6CCCC6)cc5)CC4)ncnc3c2)C1` [Compound 177, (R)-4-[7-(1-Methanesulfonyl-pyrrolidin-3-yloxy)-quinazolin-4-yl]-piperidine-1-carboxylic acid (4-pyrrolidin-1-yl-phenyl)-amide], the values for the concentration for half-maximal inhibition (IC50) (in assay [1]; with MV4-11 cells) were 1 nM and 265 nM, respectively.

For `CC(C)Oc1ccc(NC(=O)N2CCC(c3ncnc4cc(OCCCc5nnn[nH]5)ccc34)CC2)cc1` [Compound 204, 4-{7-[3-(1H-Tetrazol-5-yl)-propoxy]-quinazolin-4-yl}-piperidine-1-carboxylic acid (4-isopropoxy-phenyl)-amide], the IC50 in assay [1] is 306 nM; with MV4-11 cells it was more than 1000 nM.

Take `COc1cc2ncnc(C3CCN(C(=O)Nc4ccc(OC(F)(F)F)cc4)CC3)c2cc1OC` [Example 50, 4-(6,7-Dimethoxy-quinazolin-4-yl)-piperidine-1-carboxylic acid (4-trifluoromethoxy-phenyl)-amide]: the results for the half-maximal inhibitory concentration (IC50) (in assay [1]; with MV4-11 cells) were 83 nM and 131 nM, respectively.

With `COc1cc2ncnc(C3CCN(C(=O)Nc4ccc(N5CCN(C)CC5)cc4)CC3)c2cc1OC` [Example 20, 4-(6,7-Dimethoxy-quinazolin-4-yl)-piperidine-1-carboxylic acid [4-(4-methyl-piperazin-1-yl-phenyl)]-amide], the 50% inhibitory concentration (IC50) in assay [1] stood at 6600 nM; in the assay with MV4-11 cells, 1100 nM.

Turning to `COc1ccc(NC(=O)N2CCC(c3ncnc4cc(OC)c(OC)cc34)CC2)cc1` [Example 41, 4-(6,7-Dimethoxy-quinazolin-4-yl)-piperidine-1-carboxylic acid (4-methoxy-phenyl)-amide], the results for the half-maximal inhibitory concentration (IC50) (in assay [1]; with MV4-11 cells) were 730 nM and 3300 nM, respectively.

With `O=C(Nc1ccc(N2CCCC2)nc1)N1CCC(c2ncnc3cc(OCCCn4cnnc4)ccc23)CC1` [Example 114, 4-[7-(3-[1,2,4]Triazol-4-yl-propoxy)-quinazolin-4-yl]-piperidine-1-carboxylic acid (6-pyrrolidin-1-yl-pyridin-3-yl)-amide], the IC50 is 9 nM in assay [1] and 178 nM with MV4-11 cells.

As to `O=C(Nc1ccc(N2CCOCC2)cc1)N1CCC(c2ncnc3cc(N4CC[C@@H](O)C4)ccc23)CC1` [Example 126, (R)-4-[7-(3-Hydroxy-pyrrolidin-1-yl)-quinazolin-4-yl]-piperidine-1-carboxylic acid (4-morpholin-4-yl-phenyl)-amide], the results for the IC50 (in assay [1]; in the assay with MV4-11 cells) were 25 nM and 96 nM, respectively.

Take `CN(C)c1c(NCCCOc2ccc3c(C4CCN(C(=O)Nc5ccc(N6CCCC6)nc5)CC4)ncnc3c2)c(=O)c1=O` [Example 111, 4-{7-[3-(2-Dimethylamino-3,4-dioxo-cyclobut-1-enylamino)-propoxy]-quinazolin-4-yl}-piperidine-1-carboxylic acid (6-pyrrolidin-1-yl-pyridin-3-yl)-amide]: the IC50 in assay [1] stood at 19 nM; in the assay with MV4-11 cells, 625 nM.

Consider `O=C(NCCCOc1ccc2c(C3CCN(C(=O)Nc4ccc(N5CCOCC5)nc4)CC3)ncnc2c1)N1CCOCC1` [Example 113, Morpholine-4-carboxylic acid (3-{4-[1-(6-morpholin-4-yl-pyridin-3-ylcarbamoyl)-piperidin-4-yl]-quinazolin-7-yloxy}-propyl)-amide], for which the concentration for half-maximal inhibition (IC50) in assay [1] is 132 nM; in the assay on MV4-11 cells, 360 nM.

Take `COc1cc2ncnc(C3CCN(C(=O)NC4CCCCC4)CC3)c2cc1OC` [Example 42, 4-(6,7-Dimethoxy-quinazolin-4-yl)-piperidine-1-carboxylic acid cyclohexylamide]: the IC50 (in assay [1]; in the assay on MV4-11 cells) was more than 10000 nM in each case.

Regarding `COc1cc2c(C3CCN(C(=O)Nc4ccc(N5CCCC5)cc4)CC3)ncnc2cc1OCCCN1CCN(C)CC1` [Compound 208, 4-{6-Methoxy-7-[3-(4-methyl-piperazin-1-yl)-propoxy]-quinazolin-4-yl}-piperidine-1-carboxylic acid (4-pyrrolidin-1-yl-phenyl)-amide], the IC50 came to 2 nM in assay [1] and 3 nM in the assay on MV4-11 cells.

Regarding `COc1cc2ncnc(C3CCN(C(=O)Nc4ccc(N5CCCCC5)c(Cl)c4)CC3)c2cc1OC` [Example 71, 4-(6,7-Dimethoxy-quinazolin-4-yl)-piperidine-1-carboxylic acid (3-chloro-4-piperidin-1-yl-phenyl)-amide], the 50% inhibitory concentration (IC50) in assay [1] turned out to be 139 nM; in the assay on MV4-11 cells, 110 nM.

In the case of `O=C(Nc1ccc(N2CCOCC2)nc1)N1CCC(c2ncnc3cc(OCCCn4cnnc4)ccc23)CC1` [Example 110, 4-[7-(3-[1,2,4]Triazol-4-yl-propoxy)-quinazolin-4-yl]-piperidine-1-carboxylic acid (6-morpholin-4-yl-pyridin-3-yl)-amide], the values for the IC50 (in assay [1]; in the assay on MV4-11 cells) were 28 nM and 893 nM, respectively.

On to `CN1CCN(CCCOc2ccc3c(C4CCN(C(=S)Nc5ccc(N6CCOCC6)nc5)CC4)ncnc3c2)CC1` [Example 106, 4-{7-[3-(4-Methyl-piperazin-1-yl)-propoxy]-quinazolin-4-yl}-piperidine-1-carbothioic acid (6-morpholin-4-yl-pyridin-3-yl)-amide], for which the values for the IC50 (in assay [1]; with MV4-11 cells) were 2200 nM and 1000 nM, respectively.

Turning to `COc1cc2ncnc(C3CCN(C(=O)Nc4ccc(C)cc4)CC3)c2cc1OC` [Example 48, 4-(6,7-Dimethoxy-quinazolin-4-yl)-piperidine-1-carboxylic acid p-tolylamide], the IC50 in assay [1] stood at 1600 nM; in the assay on MV4-11 cells it was 1800 nM.

With `CN1CCN(c2ccc3ncnc(C4CCN(C(=O)Nc5ccc(N6CCOCC6)cc5)CC4)c3c2)CC1` [Compound 198, 4-[6-(4-Methyl-piperazin-1-yl)-quinazolin-4-yl]-piperidine-1-carboxylic acid (4-morpholin-4-yl-phenyl)-amide], the IC50 in assay [1] worked out at 10200 nM; with MV4-11 cells it was 227 nM.

For the compound `COCC(=O)N1CCN(c2ccc3c(C4CCN(C(=O)Nc5ccc(N6CCCC6)cc5)CC4)ncnc3c2)CC1` [Compound 200], the results for the IC50 (in assay [1]; in the assay with MV4-11 cells) were 21 nM and 6 nM, respectively.

For `CN(C)C(=O)N1CCN(c2ccc3c(C4CCN(C(=O)Nc5ccc(N6CCCC6)cc5)CC4)ncnc3c2)CC1` [Example 168, 4-{4-[1-(4-Pyrrolidin-1-yl-phenylcarbamoyl)-piperidin-4-yl]-quinazolin-7-yl}-piperazine-1-carboxylic acid dimethylamide], the 50% inhibitory concentration (IC50) in assay [1] came to 3 nM; with MV4-11 cells, 17 nM.

For the compound `COc1ccc2ncnc(C3CCN(C(=O)Nc4ccc(OC(C)C)cc4)CC3)c2c1` [Compound 203, 4-(6-Methoxy-quinazolin-4-yl)-piperidine-1-carboxylic acid (4-isopropoxy-phenyl)-amide], the IC50 in assay [1] was 297 nM; in the assay on MV4-11 cells, 149 nM.

The term IC50 denotes the point on the concentration scale where inhibition reaches its midpoint. A lower IC50 goes with greater potency.
